# Test results taken from patent publication US9797913B2, “Alzheimer's disease-specific alterations of the ERK1/ERK2 phosphorylation ratio-alzheimer's disease-specific molecular biomarkers (ADSMB)” (BLANCHETTE ROCKEFELLER NEUROSCIENCES INSTITUTE, priority 2005, dated 2017).
# Entries after “also recorded” stand apart in the source; their conditions may differ.
# Key:
# AD-transgenic mice = details: chronic exposure; cited from earlier work
# [1] = tested on: Aβ(1-42) levels in the brains; details: transgenic mice with human AD genes; cited from earlier work
# [2] = tested on: Erk1/Erk2 phosphorylation ratio in Aβ(1-42)-treated human fibroblasts; experiment: Bryostatin reversal of the Aβ(1-42)-induced Alzheimer's phenotype (ADSMB) in control fibroblasts; type: cell-based; details: AC cell lines, 1.0 μM Aβ(1-42) 24 hrs followed by 0.1 nM bryostatin 20 min
# Experimental: Preparation of Aβ(1-42) solution: Initially 1 mg of Aβ(1-42) was dissolved in hexa-fluoroisopropanol (Sigma, St. Louis, Mo.) at a concentration of 3 mM and separated into aliquots in sterile microcentrifuge tubes. Hexa-fluoroisopropanol was removed under vacuum and lyophilized. The Aβ(1-42) films were stored at −20° C. under dry conditions until use. 5 mM Aβ(1-42) stock solution was prepared from the stored Aβ(1-42) in DMSO just before the experiment. 1.0 μM stock solution was prepared in DMEM medium (supplemented with 10% serum and penicillin/streptomycin) by dissolving Aβ(1-42) from a DSMO stock solution. […] Total Erk1, Erk2 and the phosphorylated forms of Erk1 and Erk2 (p-Erk1, p-Erk2) were determined using specific antibodies: anti-regular Erk1/2 and anti-phospho ERK1/2. […]
# Signals of the Western blot protein bands were scanned with a Fuji LAS-1000 Plus scanner. The intensity of Erk1, Erk2, p-Erk1 and p-Erk2 were measured from scanned protein bands by a specially designed software developed by Dr. Nelson in our Institute (Blanchette Rockefeller Neurosciences Institute, Rockville, Md.). The intensity was measured by strip densitometry. The protein bands were selected by strip and each pixel density was calculated after background subtraction by the software. The ratios of p-Erk1/p-Erk2 were calculated from sample (BK+) and control (BK−) respectively. […]
# PKC = details: human fibroblasts; cited from earlier work
# [3] = tested on: Erk1/Erk2 phosphorylation ratio in non-AD control (AC) cells; experiment: Aβ(1-42) induction of the Alzheimer's phenotype (ADSMB, bradykinin-induced p-Erk1/p-Erk2 ratio) in control fibroblasts; type: cell-based, human; details: for ADSMB: then 10 nM bradykinin 10 min
# Experimental: Preparation of Aβ(1-42) solution: Initially 1 mg of Aβ(1-42) was dissolved in hexa-fluoroisopropanol (Sigma, St. Louis, Mo.) at a concentration of 3 mM and separated into aliquots in sterile microcentrifuge tubes. Hexa-fluoroisopropanol was removed under vacuum and lyophilized. The Aβ(1-42) films were stored at −20° C. under dry conditions until use. 5 mM Aβ(1-42) stock solution was prepared from the stored Aβ(1-42) in DMSO just before the experiment. 1.0 μM stock solution was prepared in DMEM medium (supplemented with 10% serum and penicillin/streptomycin) by dissolving Aβ(1-42) from a DSMO stock solution. DMEM medium containing 1.0 μM Aβ(1-42) was added to non-AD control (AC) cells at 90-100% confluence stage in 25 mL cultured flask and kept at cell culture incubator (at 37° C. with 5% CO2) for 24 hrs. Cells were ‘starved’ in serum free medium (DMEM) for 16 hours. 10 nM bradykinin (in DMSO) solution was prepared in DMEM medium with 10% serum. 7 mL of 10 nM BK solution were added to the 25 mL cultured flask and incubated at 37° C. for 10 min. For the controls, the same amount of DMSO was added in DMEM medium with 10% serum. 7 mL of this medium with DMSO (<0.01%) were added to the 25 mL cultured flask and incubated at 37° C. for 10 min. After washing four times with cold (4° C.) 1×PBS, flasks were kept in a dry ice/ethanol mixture for 15 min. Flasks were removed from the dry ice/ethanol mixture and then 100 μL of lysis buffer (10 mM Tris, pH 7.4, 150 mM NaCl, 1 mM EDTA, 1 mM EGTA, 0.5% NP-40, 1% Triton X-100, 1% protease inhibitor cocktail, 1% ser/thr/tyrosine phosphatase inhibitor cocktails) was added into each flask. Flasks were kept on an end-to end shaker in a cold room (4° C.) for 30 min and cells were collected from each flask with a cell scraper. Cells were sonicated and then centrifuged at 14000 rpm for 15 min, and the supernatant was used for Western blotting after total protein assay. Total Erk1, Erk2 and the phosphorylated forms of Erk1 and Erk2 (p-Erk1, p-Erk2) were determined using specific antibodies: anti-regular Erk1/2 and anti-phospho ERK1/2. At least three bradykinin treated flasks (BK+) and correspondingly three control flasks (BK−) were included for each cell line to minimize errors in measurement.
# Signals of the Western blot protein bands were scanned with a Fuji LAS-1000 Plus scanner. The intensity of Erk1, Erk2, p-Erk1 and p-Erk2 were measured from scanned protein bands by a specially designed software developed by Dr. Nelson in our Institute (Blanchette Rockefeller Neurosciences Institute, Rockville, Md.). The intensity was measured by strip densitometry. The protein bands were selected by strip and each pixel density was calculated after background subtraction by the software. The ratios of p-Erk1/p-Erk2 were calculated from sample (BK+) and control (BK−) respectively. The following formula was used to distinguish between AD and non-AD cases: ADSMB=[p-Erk1/p-Erk2]^BK+−[p-Erk1/p-Erk2]^BK− ADSMB=Alzheimer's Disease-Specific Molecular Biomarker
Compound,survival (AD-transgenic mice),Aβ(1-42) levels in the brains [1],ADSMB after Aβ(1-42) then bryostatin treatment (in words) [2],ADSMB after Aβ(1-42) then bryostatin treatment (in words) ([2]; listed as bryostatin),PKC activation (PKC),"ADSMB Average ± SE ([3]; average of AC cell lines, 1.0 μM Aβ(1-42) 24 hrs, P < 0.001 vs control)","ADSMB ([3]; cell line AG06959, 1.0 μM Aβ(1-42) 24 hrs)","ADSMB ([3]; cell line AG07732, 1.0 μM Aβ(1-42) 24 hrs)","ADSMB ([3]; cell line AG09977, 1.0 μM Aβ(1-42) 24 hrs)","ADSMB ([3]; cell line AG11363, 1.0 μM Aβ(1-42) 24 hrs)","ADSMB after Aβ(1-42) treatment (in words) ([3]; control (non-AD) cell lines, 1.0 μM Aβ(1-42), 24 hours)"
CCC/C=C/C=C/C(=O)O[C@H]1/C(=C/C(=O)OC)C[C@H]2C[C@H]([C@@H](C)O)OC(=O)C[C@H](O)C[C@@H]3C[C@H](OC(C)=O)C(C)(C)[C@](O)(C[C@@H]4C/C(=C/C(=O)OC)C[C@H](/C=C/C(C)(C)[C@]1(O)O2)O4)O3 [Bryostatin],greatly increased survival,reduce Aβ(1-42) levels,entirely reversed,small and negative,enhance PKC activation,–,–,–,–,–,–
Beta amyloid (1-42) [Aβ],–,–,–,–,–,0.13 ± 0.01,0.13,0.12,0.13,0.16,abnormal positively valued ADSMB phenotype; also recorded: higher and positive
